Patent publication US5679787A, “Process for isomerization of compound of aldose structure into compound of ketose structure, and isomerization agent or accelerator used therein” (priority 1992, dated 1997)

Assays:
[1] = Isomerization without enzyme (Example 3), ribose; details: NaOH; remark (2): reaction time 6 h, initial pH 10.0-10.6; blank 3.9-19.5%
[2] = Isomerization test at pH 10 (Example 4), mannose; details: pH 10 with aqueous sodium hydroxide, 80° C., 3 hours; blank 12.48
Procedure: (§1) The same isomerization test as in Example 2 was conducted with slight modifications.
(§2) That is, 200 μl of one of various saccharide solutions and 200 μl of one of various organogermanium compound solutions were placed in a small test tube. The mixture was adjusted to pH 10 with an aqueous sodium hydroxide solution, after which the tube was placed in a water bath of 80° C. for a reaction. 3 hours later, the reaction was terminated and the amount of each saccharide isomerized was determined by high-performance liquid chromatography using 7A (a column) manufactured by Shimadzu Corp.

[3] = Isomerization without enzyme (Example 3), glucose; details: remark (1): initial pH 8.0-8.53
Procedure: 200 μl of the 14% or 28% glucose solution and 200 μl of the organogermanium compound solution (pH 8.00 or 8.53) were placed in a small test tube. Also, 200 μl of the 14% or 28% glucose solution and 200 μl of the weakly alkaline electrolytic water were placed in a small test tube. Each test tube was thoroughly shaken and then placed in a water bath of 80° C. to give rise to a reaction. […] Thereafter, the mixture was diluted 100-fold with deionized water to determine the amount of formed fructose and the amount of residual glucose by high-performance liquid chromatography using 7A (a column) manufactured by Shimadzu Corp. […]

[4] = Isomerization test at pH 10 (Example 4), xylose; details: pH 10 with aqueous sodium hydroxide, 80° C., 3 hours; blank 5.59
Procedure: as §1, §2

[5] = Isomerization without enzyme (Example 3), mannose; details: remark (2): reaction time 6 h, initial pH 10.0-10.6
[6] = Isomerization test at pH 10 (Example 4), arabinose; details: pH 10 with aqueous sodium hydroxide, 80° C., 3 hours; blank 2.75
Procedure: as §1, §2

[7] = Isomerization without enzyme (Example 3), lactose; details: remark (3): reaction time 6 h, initial pH 10.0-11.0
[8] = Isomerization test at pH 10 (Example 4), maltose; details: pH 10 with aqueous sodium hydroxide, 80° C., 3 hours; blank 12.59
Procedure: as §1, §2

[9] = Isomerization test at pH 10 (Example 4), galactose; details: pH 10 with aqueous sodium hydroxide, 80° C., 3 hours; blank 7.60
Procedure: as §1, §2

[10] = Toxicity, LD50 on oral administration to rats; details: rat, in vivo, orally administered to rats
Excerpt: (§3) The organogermanium compound used in the present invention has very low toxicity.

[11] = Isomerization without enzyme (Example 3), xylose; details: remark (2): reaction time 6 h, initial pH 10.0-10.6
Procedure: [The procedure below names another target; the source says it served here with some conditions changed.] 200 μl of the 14% or 28% glucose solution and 200 μl of the organogermanium compound solution (pH 8.00 or 8.53) were placed in a small test tube. Also, 200 μl of the 14% or 28% glucose solution and 200 μl of the weakly alkaline electrolytic water were placed in a small test tube. Each test tube was thoroughly shaken and then placed in a water bath of 80° C. to give rise to a reaction. 1-3 hours later, 50 μl of the reaction mixture was added to 50 μl of 0.5N HClO4 to terminate the reaction. Thereafter, the mixture was diluted 100-fold with deionized water to determine the amount of formed fructose and the amount of residual glucose by high-performance liquid chromatography using 7A (a column) manufactured by Shimadzu Corp.
Other compounds represented by formula (I) were subjected to 3-hour isomerization in the same manner as in Example 2.

[12] = Isomerization without enzyme (Example 3), maltose; details: remark (3): reaction time 6 h, initial pH 10.0-11.0
[13] = Toxicity, LD50 on oral administration to mice; details: mouse, in vivo, orally administered to mice
Excerpt: as §3

[14] = system: glucose isomerase; assay: Enzymatic isomerization of glucose into fructose in presence of organogermanium compound (Example 1); assay type: biochemical, Streptomyces griseofuscus S-41; details: 60° C., pH 8.0, substrate solution 40% glucose and 1.2M organogermanium compound, blank 50%
Procedure: A solution containing 40% glucose and 1.2M organogermanium compound was prepared according to the following procedure. 0.8 g of anhydrous glucose was dissolved in 0.8 ml of deionized water. To the solution was added, in small portions, 0.407 g of the organogermanium compound (1) as an isomerization accelerator of the present invention [a compound represented by formula (II) wherein n=1, R1 =R2 =R3 and X1 =OH] while the pH of the solution was maintained at very weak alkalinity, to completely dissolve the compound in the solution. Thereto was added 4.9 mg of magnesium sulfate, and the pH of the resulting mixture was adjusted to 8.0. Then, deionized water was added to make the total volume 2.0 ml, whereby a substrate solution was prepared.
Two other substrate solutions containing the organogermanium compounds (18) [a compound represented by formula (II) wherein n=1, R1 =R2 =H, R3 =NH2 and X1 =OH] and (23) [a compound represented by formula (II) wherein n=1, R1 =H, R2 =C6 H5, R3 =NH2 and X1 =OH], respectively, were prepared in the same manner as above except that the organogermanium compounds (18) and (23) were used in amounts of 0.443 g and 0.638 g, respectively (these amounts corresponded to 1.2M of germanium).
An isomerization enzyme (glucose isomerase) extracted from the cells of Streptomyces griseofuscus S-41 was purified according to a known method using an ion exchange column, a gel filtration column or the like, until a single band was obtained electrophoretically. The resulting purified enzyme was used as a standard enzyme.
In a small test tube were placed 0.7 ml of the above substrate solution, 0.1 ml of a 200 mM MOPS buffer solution (pH 8.0) and 0.2 ml of a solution containing the above-prepared standard enzyme (5.69 mg/ml). […] The amount of formed fructose in the microvial was determined by high-performance liquid chromatography using a column [LC7A, SCR-101 (N) manufactured by Shimadzu Corp.] to examine the change with time, of ratio of isomerization of glucose into fructose.

[15] = Isomerization test at pH 10 (Example 4), ribose; details: pH 10 with aqueous sodium hydroxide, 80° C., 3 hours; blank 2.89
Procedure: as §1, §2

[16] = Isomerization without enzyme (Example 3), arabinose; details: remark (2):, initial pH 10.0-10.6
[17] = electrolytic water, blank 0.4-1.2%
[18] = electrolytic water, blank 0-0.4%

## O=C(O)C[CH2][Ge](=[O])[O][Ge](=[O])[CH2]CC(=O)O [Compound 1]
[1]
  Isomerization ratio Ribose NaOH: 44.7%
[2]
  Isomerization (%) Mannose: 37.23%
[3]; NaOH, blank 32.3%
  Isomerization ratio Glucose NaOH: 98.9%
[3]; electrolytic water, blank 2.1-3.1%
  Isomerization ratio Glucose Electrolytic water: 94.7%
[4]
  Isomerization (%) Xylose: 40.66%
[5]; NaOH, blank 3.9-19.5%
  Isomerization ratio Mannose NaOH: 24.3%
[5]; [17]
  Isomerization ratio Mannose Electrolytic water: 13.1%
[6]
  Isomerization (%) Arabinose: 20.87%
[7]; NaOH, blank 34.0-38.6%
  Isomerization ratio Lactose NaOH: 70.3%
[7]; [18]
  Isomerization ratio Lactose Electrolytic water: 58.3%
[8]
  Isomerization (%) Maltose: 78.91%
[9]
  Isomerization (%) Galactose: 38.67%
[10]
  LD50: ≥ 10000 mg/kg
[11]; NaOH, blank 3.9-19.5%
  Isomerization ratio Xylose NaOH: 30.3%
[11]; [17]
  Isomerization ratio Xylose Electrolytic water: 19.6%
[12]; NaOH, blank 34.0-38.6%
  Isomerization ratio Maltose NaOH: 68.7%
[12]; [18]
  Isomerization ratio Maltose Electrolytic water: 43.2%
[13]
  LD50: ≥ 6000 mg/kg
[14]
  isomerization ratio in equilibrium: 75%
[15]
  Isomerization (%) Ribose: 27.76%
[16]; NaOH, blank 3.9-19.5%
  Isomerization ratio Arabinose NaOH: 22.6%
[16]; [17]
  Isomerization ratio Arabinose Electrolytic water: 12.6%
